In US20080254101A1, “PILOCARPINE COMPOSITIONS AND METHODS OF USE THEREOF” (priority 2004, published 2008):

Key:
[1] = Ionization of pilocarpine (pKa, pH = pKa + Log10 formula); type: physicochemical; conditions: at a pH of from about 7.6 to about 8.6, using the formula
From the text: Conversion of the ionized form to the un-ionized form for pilocarpine is related to pH according to the formula: pH=pKa+Log10 (un-ionized concentration/ionized concentration). When the pH is the same as the pKa, equimolar concentrations of the un-ionized form and ionized form exist. For basic compounds such as pilocarpine, when the pH is one unit higher than the pKa, the ratio of the un-ionized form to the ionized form is 91:9. Similarly, when the pH is two units higher than the pKa, the ratio of un-ionized form to the ionized form is […]. As noted above, the un-ionized form is lipophilic and, therefore, more capable of passing through mucous membranes such as the oral mucosa than the ionized form, which is lipophobic in nature. Accordingly, increasing the pH of the saliva favors conversion of the ionized form into the un-ionized form for basic compounds such as pilocarpine, and the final pH can be determined by making use of the above formula. For pilocarpine, the tri-substituted nitrogen in the imidazole group controls the extent of ionization and the degree of lipophilicity in any given medium. Typically, the nitrogen in the imidazole group imparts a pKa of about 6.6 to the molecule at 37° C.

[2] = at 37° C., nitrogen in the imidazole group; cited from earlier work

## CC[C@@H]1C(=O)OC[C@@H]1Cc1cncn1C [pilocarpine]
[1]
  conversion to an un-ionized form: about 90%
[2]
  pKa: about 6.6
